# System: C. beijerinckii NCIMB 8052
# Test: Final pH of cell-free culture supernatants of sequential batch cultures
# Assay type: cell-based, Clostridium beijerinckii
# Procedure: Bacterial strains and media. Clostridium acetobutylicum ATCC 824 and C. beijerinckii NCIMB 8052 are available from several commercial microbial culture collections including the American Type Culture Collection (ATCC), Manassas, Va., USA. The strains were grown at 30° C. or 37° C. in YE broth, which contained, per liter: 5.0 g yeast extract, 2.5 g casamino acids, 1.0 g L-asparagine, 0.5 g cysteine.HCl, 56 mg K2HPO4, 56 mg KH2PO4, 82 mg anhydrous MgSO4, 8 mg FeSO4.H2O, 6 mg MnSO4.H2O and 10 g glucose. Alternatively, strains were grown in YEPG broth, which was identical to YE expect that K2HPO4 and KH2PO4 were increased to 145 mg/L each and glucose was increased to 60 g/L. The pH of the media was adjusted to 7.2 using 45% KOH prior to sterilization by autoclaving. Media were solidified by addition of 1.5% Bacteriological Agar, Actimedia Manufacturers, Inc., Lansing, Mich. All cultures were grown in anaerobic conditions using the AnaeroPack System, Mitsubishi Gas Chemical Co., Inc., Japan, and GasPak EZ Gas Generating Sachets, Becton, Dickinson and Co., Sparks, Md. Spore stocks were kept at room temperature on agar-solidified media and were activated by suspending spores in 0.5 mL to 1.0 mL of medium followed by heating for 10 min at 80° C. before inoculation into growth medium.
# Growth and pH measurements. Growth of bacterial cultures was measured spectrophotometrically using optical density at 600 nm and pH of cell-free culture supernatants was measured using a hand-held Shindengen ISFET pH Meter KS501, Shendengen Electric Manufacturing Co., Ltd., Bannockburn, Ill.
# Effect of peptide SEQ ID NO:145 addition on sequential batch cultures of C. beijerinckii NCIMB 8052 grown at 30° C. Spores of C. beijerinckii NCIMB 8052 were germinated and grown overnight at 30° C. under anaerobic conditions in YEPG medium. After about 24 h of growth, […] of the culture was transferred (transfer 1) to each of four flasks that contained 10 mL of YEPG and either had no treatment or were treated with peptide SEQ ID NO:145 (see Table 8) at 1 nM, 10 nM or 50 nM. Thereafter, 75 μL of each culture was transferred, at the same time, every 24-48 h to 10 mL of fresh YEPG that contained the same peptide treatment or no treatment. Each culture was stopped after 96 hours of incubation and optical density, pH and ceric ion reactive chemicals were measured. Sequential batch culturing was continued through 6 transfers at which point all cultures appeared to be growing to the same extent (Table 12 and FIG. 4).
# Effect of peptide SEQ ID NO:145 addition on sequential batch cultures of C. beijerinckii NCIMB 8052 grown at 37° C. Spores of C. beijerinckii NCIMB 8052 were germinated and grown overnight at 37° C. under anaerobic conditions in YEPG medium that either contained 50 nM of peptide SEQ ID NO:145 or no added peptide. After about 24 h of growth, 10 μL of the untreated culture was transferred (transfer 1) to each of two flasks that contained 10 mL of YEPG with either no treatment or with 50 nM peptide SEQ ID NO:145. At the same time, 10 μL of the culture that was germinated in the presence of peptide SEQ ID NO:145 was also transferred to 10 mL of YEPG that contained 50 nM of peptide SEQ ID NO:145. Thereafter, 10 μL of each culture was transferred, at the same time, every 24-48 h to 10 mL of fresh YEPG that contained the same peptide treatment or no treatment. Each culture was stopped after 72 hours of incubation and optical density, pH and ceric ion reactive chemicals were measured. Addition of peptide SEQ ID NO:145 appeared to have no effect on endpoint measurements of the growth of C. beijerinckii NCIMB 8052 after germination or during sequential transfers of cultures at 37° C. (Table 18 and FIG. 10). All three cultures stopped growing at the second transfer.
substance,measurement,setting,value
"IRLIT (Derived from Clostridium beijerinckii SEQ ID NO: 141) [Peptide SEQ ID NO:145, pentapeptide from C. beijerinckii NCIMB 8052 locus Cbei_1065; chemically synthesized putative autoinducing peptide]",Final pH of culture broths,"1 nM peptide, transfer 1, 96 h, 30° C.",5.3
same,Final pH of culture broths,"1 nM peptide, transfer 2, 96 h, 30° C.",5.3
same,Final pH of culture broths,"1 nM peptide, transfer 3, 96 h, 30° C.",5.1
same,Final pH of culture broths,"1 nM peptide, transfer 4, 96 h, 30° C.",5.3
same,Final pH of culture broths,"1 nM peptide, transfer 5, 96 h, 30° C.",5.3
same,Final pH of culture broths,"1 nM peptide, transfer 6, 96 h, 30° C.",5.3
same,Final pH of culture broths,"10 nM peptide, transfer 1, 96 h, 30° C.",5.3
same,Final pH of culture broths,"10 nM peptide, transfer 2, 96 h, 30° C.",5.3
same,Final pH of culture broths,"10 nM peptide, transfer 3, 96 h, 30° C.",5.0
same,Final pH of culture broths,"10 nM peptide, transfer 4, 96 h, 30° C.",5.3
same,Final pH of culture broths,"10 nM peptide, transfer 5, 96 h, 30° C.",5.4
same,Final pH of culture broths,"10 nM peptide, transfer 6, 96 h, 30° C.",5.3
same,Final pH of culture broths,"50 nM peptide added after germination, transfer 1, 72 h, 37° C.",4.1
same,Final pH of culture broths,"50 nM peptide added after germination, transfer 2, 72 h, 37° C.",6.5
same,Effect on endpoint measurements of pH,"50 nM peptide, 37° C.",no apparent effect
same,Final pH of culture broths,"50 nM peptide, transfer 1, 96 h, 30° C.",5.4
same,Final pH of culture broths,"50 nM peptide, transfer 2, 96 h, 30° C.",5.3
same,Final pH of culture broths,"50 nM peptide, transfer 3, 96 h, 30° C.",5.2
same,Final pH of culture broths,"50 nM peptide, transfer 4, 96 h, 30° C.",5.3
same,Final pH of culture broths,"50 nM peptide, transfer 5, 96 h, 30° C.",5.3
same,Final pH of culture broths,"50 nM peptide, transfer 6, 96 h, 30° C.",5.3
same,Final pH of culture broths,"50-50: germinated and transferred in 50 nM peptide, transfer 1, 72 h, 37° C.",4.1
same,Final pH of culture broths,"50-50: germinated and transferred in 50 nM peptide, transfer 2, 72 h, 37° C.",6.6
same,Final pH of culture broths,"50-50: spores germinated in 50 nM peptide, transfer 0 (germinated culture), 72 h, 37° C.",4.1

# Source: US20120107916A1, “METHODS AND COMPOSITIONS FOR AFFECTING THE DIFFERENTIATION OF CLOSTRIDIA IN CULTURE” (priority 2009, published 2012)
